Assay results published in paper PMC10072319 (Bioorganic & medicinal chemistry letters, 2023).

How the values were obtained:
HEK293 cells = experiment: Resazurin cell viability; settings: read-out: HEK293 CC50, 48 h, mean ± SD
T. b. brucei Lister 427 = assay type: cell-based, Trypanosoma brucei brucei; settings: for activity against T. b. brucei, in words: first pass screen at 4 μM
T. b. brucei parasites = experiment: Time-kill experiment, parasites quantified by hemocytometer cell counting; assay type: cell-based, Trypanosoma brucei brucei; settings: for time required to kill the parasites: all concentrations tested (46: 1, 2 and 4 μM; pentamidine: 0.5, 1 and 2 μM)
[1] = test system: T. b. brucei trypanosomes; experiment: Washout experiment; assay type: cell-based, Trypanosoma brucei brucei; settings: 1, 2 and 4 μM for 6, 4 and 2 h, washed three times, monitored a further 48 h

Row | Structure (SMILES) | activity against T. b. brucei, in words (T. b. brucei Lister 427) | other results
1 | O=C(/C=C/c1ccccc1)/C=C/c1ccccc1 [Compound 3, dibenzylideneacetone] | – | CC50 (HEK293 cells): 8.33 ± 0.48 µM; EC50 (T. b. brucei Lister 427; read-out: T. b. brucei EC50, bloodstream forms, Lister 427, SYBR green, 72 h, mean ± SD): 800 ± 200 nM
2 | O=C(/C=C/c1ccccc1Cl)/C=C/c1ccccc1Cl [Compound 19] | sub-micromolar activity | selectivity index (SI = HEK293 CC50/T. b. brucei EC50) (T. b. brucei Lister 427): above 10
3 | O=C(/C=C/c1ccccc1)/C=C/c1cccc([N+](=O)[O-])c1 [Compound 46] | – | time required to kill the parasites (T. b. brucei parasites): less than 24 h; time required to kill the parasite (T. b. brucei parasites; at 2 and 4 μM): less than 6 h; trypanocidal vs trypanostatic activity after washout [1]: trypanocidal rather than trypanostatic
4 | CN(C)c1ccc(/C=C/C(=O)/C=C/c2ccccc2)cc1 [Compound 40] | no activity | –
5 | O=C(/C=C/c1ccc(C(F)(F)F)cc1)CC(=O)/C=C/c1ccc(C(F)(F)F)cc1 [Compound 11] | inactive | –
6 | COc1cc(/C=C/C(=O)/C=C/c2cc(OC)c(OC)c(OC)c2)cc(OC)c1OC [Compound 13] | sub-micromolar activity | –
7 | COc1cccc(/C=C/C(=O)/C=C/c2cccc(OC)c2)c1 [Compound 28] | inactive | –
8 | COc1cccc(/C=C/C(=O)CC(=O)/C=C/c2cccc(OC)c2)c1 [Compound 7] | inactive | –
9 | O=C(/C=C/c1ccccc1)CC(=O)/C=C/c1ccccc1 [Compound 5] | no measurable activity | –
10 | COc1ccc(/C=C/C(=O)/C=C/c2ccc(OC)cc2)cc1 [Compound 29] | inactive | –
11 | COc1ccc(/C=C/C(=O)/C=C/c2ccccc2)cc1 [Compound 35] | no activity | –
12 | COc1ccc(/C=C/C(=O)CC(=O)/C=C/c2ccc(OC)c(OC)c2)cc1OC [Compound 8] | inactive | –
13 | COc1ccc(/C=C/C(=O)/C=C/c2ccc(OC)c(OC)c2)cc1OC [Compound 16] | sub-micromolar activity | selectivity index (SI = HEK293 CC50/T. b. brucei EC50) (T. b. brucei Lister 427): above 10
14 | N=C(N)c1ccc(OCCCCCOc2ccc(C(=N)N)cc2)cc1 [Pentamidine, reference compound] | – | time required to kill the parasites (T. b. brucei parasites): > 30 h
15 | O=C(/C=C/c1ccc(Cl)c(Cl)c1)CC(=O)/C=C/c1ccc(Cl)c(Cl)c1 [Compound 12] | inactive | –
16 | COc1cc(/C=C2\CCC/C(=C\c3cc(OC)cc(OC)c3)C2=O)cc(OC)c1 [Compound 34] | inactive | –
